One data set relates to Shewanella oneidensis. The experiment in a line: Antibacterial activity against Shewanella oneidensis MR-1. In kind it is functional.
Data set [1] concerns Bacillus amyloliquefaciens. The experiment in a line: Antibacterial activity against Bacillus amyloliquefaciens. In kind it is functional.
The subject of another data set is Staphylococcus aureus. The experiment in a line: Antibacterial activity against Staphylococcus aureus. In kind it is functional.
For data set [2], the target named is Heat shock protein HSP 90-alpha (Homo sapiens, UniProt P07900). The experiment in a line: Inhibition of HSP90alpha (unknown origin).
For a further data set, the system named is A549. The data set can be described thus: Cytotoxicity against human A549 cells assessed as reduction in cell viability. The format is functional, cell-based.
A further data set has as its system K562. The data set can be described thus: Cytotoxicity against human K562 cells assessed as reduction in cell viability. The format is functional, cell-based.
The test system of data set [3] is MCF7.
Data set [4] deals with HL-60.
Description: (§1) Cytotoxicity against human HL60 cells assessed as reduction in cell viability
The subject of data set [5] is MCF7. The experiment in a line: cells. The conditions noted are these: Homo sapiens.
Data set [6] has as its system HL-60. The data set can be described thus: cells. Conditions: Homo sapiens.
Description: as §1
A short description of data set [7]: Cytotoxicity against African green monkey Vero cells assessed as reduction in cell viability. The format is cell-based. Conditions: chlorocebus sabaeus.
Another data set deals with Human alphaherpesvirus 1. The data set can be described thus: Antiviral activity against HSV-1 by plaque reduction assay. In kind it is functional, organism-based. (Plaques are areas of infected cells; plaque reduction assays count them against a control.)
Setting [8] is: Homo sapiens, K562, read-out: IC50.

In general, MIC refers to the smallest concentration in the dilution series that meets the test's criterion for growth inhibition. A word on the IC50: it is the concentration at which inhibition is half-maximal. One may read the CC50 as the concentration at which the toxic effect on the cells reaches its halfway point.

Values after ≈ are worked out from the molar mass of the structure shown. Some results are limits rather than exact numbers.

Take `CO[C@H]1C[C@H](C)Cc2cc(cc(O)c2O)NC(=O)/C(C)=C/CC[C@H](OC)[C@@H](OC(N)=O)/C(C)=C/[C@H](C)[C@H]1O`: the MIC (in the data set on Shewanella oneidensis; in data set [1]; in the data set on Staphylococcus aureus) was over 200 µg/mL in each case. For the same compound, the half-inhibitory concentration (IC50) in [2] (read-out: IC50) is 0.03 µM; in the data set with A549 it was over 50 µM; in the data set on K562 (k562), “Not Active”; in the data set with MCF7 [3], “Not Active”; with HL-60 [4], “Not Active”.
As to `COc1c(O)cc2c3c1C[C@@H](C)C[C@H](OC)[C@H](O3)[C@@H](C)/C=C(\C)[C@H](OC(N)=O)[C@@H](OC)CC/C=C(\C)C(=O)N2`, the minimum inhibitory concentration (MIC) (against Shewanella oneidensis; in data set [1]; in the data set on Staphylococcus aureus) was over 200 µg/mL in each case. In addition, the IC50 result in data set [2] was “Not Active”; with A549 it was 65 µM; in the data set on K562 (setting [8]), 43 µM; in the data set on MCF7 [5] it was 70 µM; with HL-60 [6], 86 µM.
Consider `CO[C@H]1/C=C\C=C(/C)C(=O)NC2=CC(=O)C(O)=C(C[C@@H](C)C[C@H](OC)[C@H](O)[C@@H](C)/C=C(\C)[C@@H]1OC(N)=O)C2=O`, for which the MIC (against Shewanella oneidensis; in data set [1]; in the data set with Staphylococcus aureus) was over 200 µg/mL each time. Also, the half-inhibitory concentration (IC50) was determined as 4.1 µM in data set [2] (read-out: IC50); 7.7 µM with A549; 4.8 µM with K562 (setting [8]); 9.9 µM in the data set with MCF7 [5]; 36 µM with HL-60 [6].
Regarding `CC(=O)O[C@H]1C(=O)[C@@]2(C)[C@H]([C@H](OC(=O)c3ccccc3)[C@]3(O)C[C@H](OC(=O)[C@H](O)[C@@H](NC(=O)c4ccccc4)c4ccccc4)C(C)=C1C3(C)C)[C@]1(OC(C)=O)CO[C@@H]1C[C@@H]2O` [PACLITAXEL], the half-maximal inhibitory concentration (IC50) result in data set [2] is reported as “Not Active”.
As for `COc1c(O)cc2c3c1C[C@@H](C)C[C@H](OC)[C@H](O3)[C@@H](C)/C=C(\C)[C@H](OC(N)=O)[C@@H](OC)/C=C\C=C(/C)C(=O)N2`, the MIC (with Shewanella oneidensis; in data set [1]; against Staphylococcus aureus) was over 200 µg/mL each time. Further, the half-inhibitory concentration (IC50) entry in data set [2] was “Not Active”; in the data set on A549, 16 µM; in the data set on K562 (setting [8]) it was 14 µM; in the data set with MCF7 [5] it was 20 µM; in the data set on HL-60 [6], 27 µM.
Consider `CO[C@H]1/C=C\C=C(/C)C(=O)NC2=CC(=O)C=C(C2=O)[C@H](OC)[C@@H](C)C[C@H](OC)[C@H](O)[C@@H](C)/C=C(\C)[C@@H]1OC(N)=O` [HERBIMYCIN C], for which the MIC in the data set on Shewanella oneidensis is over 200 µg/mL; in data set [1], 100 µg/mL (≈ 178 µM); against Staphylococcus aureus, 50 µg/mL (≈ 89.2 µM). The IC50 in data set [2] (read-out: IC50) came out at 31 µM; in the data set with A549, 19 µM; in the data set on K562 (setting [8]), 20 µM; with MCF7 [5] it was 20 µM; with HL-60 [6], 56 µM.
As to `COc1c(O)cc2cc1C[C@@H](C)C[C@H](OC)[C@H](O)[C@@H](C)/C=C(\C)[C@H](OC(N)=O)[C@@H](OC)CC/C=C(\C)C(=O)N2` [REBLASTATIN], the MIC (against Shewanella oneidensis; in data set [1]; against Staphylococcus aureus) was over 200 µg/mL in each case. For the same compound, the concentration for half-maximal inhibition (IC50) in [2] (read-out: IC50) was 0.005 µM; in the data set on A549, 0.7 µM; in the data set on MCF7 [3], “Not Active”; in the data set on HL-60 [4], “Not Active”.
As for `COc1c(O)cc2c3c1C[C@@H](C)C[C@H](OC)[C@H](O3)[C@@H](C)/C=C(\C)[C@H](OC(N)=O)[C@@H](OC)C[C@@H](O)/C=C(\C)C(=O)N2`, the MIC in the data set with Shewanella oneidensis is over 200 µg/mL; in data set [1], 100 µg/mL (≈ 178 µM); with Staphylococcus aureus it was 50 µg/mL (≈ 88.9 µM). In addition, the 50% inhibitory concentration (IC50) is 96 µM in [2] (read-out: IC50); over 100 µM with A549; over 100 µM in the data set on K562 (setting [8]); “Not Active” in the data set with HL-60 [4]; over 100 µM in the data set with MCF7 [5].
For the compound `CC[C@H]1/C=C/[C@@H]([C@H](C)O)OC(=O)/C(C)=C/CC(=O)Nc2cc(O)cc3c2O[C@@]2(CC1)CC(=O)[C@@H](C)[C@H]3O2`, the CC50 in [7] came to 510 µM. Also, in data set [7] (read-out: MNCC), the MNTC worked out at 160 µM. In the data set on Human alphaherpesvirus 1, this compound came in with a half-inhibitory concentration (IC50) of 19 µM.
As to `COc1c(O)cc2c3c1C[C@@H](C)C[C@H](OC)[C@H](O3)[C@@H](C)/C=C(\C)[C@H](OC(N)=O)[C@@H](OC)/C=C/C=C(\C)C(=O)N2`, the minimal inhibitory concentration (MIC) (against Shewanella oneidensis; in data set [1]; with Staphylococcus aureus) was over 200 µg/mL each time. The IC50 entry in data set [2] is “Not Active”; in the data set with A549, 37 µM; in the data set on K562 (setting [8]), 43 µM; in the data set on MCF7 [5] it was 36 µM; with HL-60 [6], 35 µM.
Consider `COc1c(O)cc2c3c1C[C@@H](C)C[C@H](OC)[C@H](O3)[C@@H](C)/C=C(\C)[C@H](OC(N)=O)[C@@H](OC)/C=C\C=C(\C)C(=O)N2`, for which the MIC (against Shewanella oneidensis; in [1]; against Staphylococcus aureus) was over 200 µg/mL throughout. Further, the IC50 entry was “Not Active” in data set [2]; 13 µM in the data set with A549; 18 µM with K562 (setting [8]); 35 µM in the data set on MCF7 [5]; 48 µM with HL-60 [6].
Take `COC1=C2C[C@@H](C)C[C@H](OC)[C@H](O)[C@@H](C)/C=C(\C)[C@H](OC(N)=O)[C@@H](OC)/C=C\C=C(/C)C(=O)NC(=CC1=O)C2=O` [GELDANAMYCIN]: the MIC (in the data set on Shewanella oneidensis; in data set [1]; in the data set on Staphylococcus aureus) was over 200 µg/mL throughout.

These data come from ChEMBL document CHEMBL4619738, “Ansamycin derivatives from the marine-derived Streptomyces sp. SCSGAA 0027 and their cytotoxic and antiviral activities” (Bioorg Med Chem Lett, 2020).
